From patent publication US7998989B2, “2-Imino-1,3-thiazoline-based compounds and T-type calcium channel inhibitors containing the same” (Korea Institute of Science and Technology, priority 2007, dated 2011)
Where two headings read alike, the source gives them in different places.

Experiments:
[1] = target: T1, α1G T-type calcium channel (Homo sapiens, UniProt O43497); experiment: Assay for % inhibiting activity against T-type calcium channel using FDSS6000 (fluo-3 calcium imaging, KCl activation); type: cell-based; conditions: HEK293 cells stably expressing α1G T-type calcium channel and Kir2.1, compounds of the examples; for inhibition at 10 µM: read-out: FDSS (% inhibition)/10uM
T1 construct: host or cells: HEK293
T1 sequence (O43497 whole entry): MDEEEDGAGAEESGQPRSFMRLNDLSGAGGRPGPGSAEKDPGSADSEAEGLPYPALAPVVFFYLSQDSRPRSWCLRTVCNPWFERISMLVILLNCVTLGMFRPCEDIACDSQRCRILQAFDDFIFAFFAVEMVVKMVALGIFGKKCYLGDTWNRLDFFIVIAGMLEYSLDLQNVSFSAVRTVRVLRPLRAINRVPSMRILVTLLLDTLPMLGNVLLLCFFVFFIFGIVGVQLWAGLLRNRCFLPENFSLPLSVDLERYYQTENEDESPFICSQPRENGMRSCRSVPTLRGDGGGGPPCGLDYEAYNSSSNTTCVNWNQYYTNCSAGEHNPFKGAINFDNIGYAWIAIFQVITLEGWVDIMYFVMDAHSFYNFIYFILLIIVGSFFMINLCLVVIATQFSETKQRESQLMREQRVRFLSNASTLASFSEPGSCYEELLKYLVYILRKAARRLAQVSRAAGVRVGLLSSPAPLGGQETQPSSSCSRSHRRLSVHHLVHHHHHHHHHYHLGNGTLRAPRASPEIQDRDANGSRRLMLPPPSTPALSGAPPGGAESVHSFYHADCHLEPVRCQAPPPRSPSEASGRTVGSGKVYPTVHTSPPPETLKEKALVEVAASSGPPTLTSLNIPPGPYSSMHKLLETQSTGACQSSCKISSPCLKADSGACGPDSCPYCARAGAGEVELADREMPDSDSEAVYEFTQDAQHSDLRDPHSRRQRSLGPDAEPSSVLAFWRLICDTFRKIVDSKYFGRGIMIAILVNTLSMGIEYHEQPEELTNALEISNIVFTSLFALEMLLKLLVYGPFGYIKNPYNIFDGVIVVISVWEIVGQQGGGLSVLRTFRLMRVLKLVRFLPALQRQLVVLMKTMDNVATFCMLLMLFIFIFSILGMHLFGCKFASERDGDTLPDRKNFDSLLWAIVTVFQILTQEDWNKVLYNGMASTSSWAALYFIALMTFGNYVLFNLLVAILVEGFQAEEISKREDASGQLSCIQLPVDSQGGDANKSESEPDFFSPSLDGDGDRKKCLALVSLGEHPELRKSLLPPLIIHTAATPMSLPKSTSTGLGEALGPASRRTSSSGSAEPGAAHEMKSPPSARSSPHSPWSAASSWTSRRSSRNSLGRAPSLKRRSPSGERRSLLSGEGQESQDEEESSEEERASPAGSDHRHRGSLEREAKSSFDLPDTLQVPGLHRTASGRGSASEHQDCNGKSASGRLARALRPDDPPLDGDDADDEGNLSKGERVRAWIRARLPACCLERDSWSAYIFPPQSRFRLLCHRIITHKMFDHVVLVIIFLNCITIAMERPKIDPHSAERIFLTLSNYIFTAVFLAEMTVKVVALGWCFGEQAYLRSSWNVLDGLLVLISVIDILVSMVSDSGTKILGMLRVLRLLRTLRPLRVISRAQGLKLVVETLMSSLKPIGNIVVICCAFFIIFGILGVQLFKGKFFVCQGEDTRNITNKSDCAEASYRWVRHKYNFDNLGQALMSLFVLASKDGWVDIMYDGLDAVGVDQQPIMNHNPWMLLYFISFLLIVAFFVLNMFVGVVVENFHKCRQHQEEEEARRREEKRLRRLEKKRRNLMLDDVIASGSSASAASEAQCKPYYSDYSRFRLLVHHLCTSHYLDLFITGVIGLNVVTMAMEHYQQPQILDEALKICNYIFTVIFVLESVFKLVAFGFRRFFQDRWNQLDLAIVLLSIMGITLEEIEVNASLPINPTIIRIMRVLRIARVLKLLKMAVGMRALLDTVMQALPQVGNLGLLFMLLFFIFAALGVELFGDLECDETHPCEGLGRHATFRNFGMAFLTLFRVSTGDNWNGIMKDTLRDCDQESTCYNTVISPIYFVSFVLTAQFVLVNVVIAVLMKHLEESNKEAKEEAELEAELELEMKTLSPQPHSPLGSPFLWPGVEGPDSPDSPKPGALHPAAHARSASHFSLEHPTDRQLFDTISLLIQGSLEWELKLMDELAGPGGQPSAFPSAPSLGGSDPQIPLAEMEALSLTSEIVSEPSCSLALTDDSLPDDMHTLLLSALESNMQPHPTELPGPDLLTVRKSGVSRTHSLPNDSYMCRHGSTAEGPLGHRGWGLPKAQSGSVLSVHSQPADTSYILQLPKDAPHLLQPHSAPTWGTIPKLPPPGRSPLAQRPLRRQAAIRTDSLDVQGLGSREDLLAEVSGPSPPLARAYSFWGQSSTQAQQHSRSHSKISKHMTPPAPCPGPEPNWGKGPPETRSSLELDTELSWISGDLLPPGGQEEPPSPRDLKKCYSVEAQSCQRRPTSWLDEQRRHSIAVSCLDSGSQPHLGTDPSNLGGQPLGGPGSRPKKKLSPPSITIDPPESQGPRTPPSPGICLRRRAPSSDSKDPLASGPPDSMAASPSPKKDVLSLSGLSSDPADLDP
In short: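 Percent inhibition derived from […] area against untreated control (100%), after 75 s compound pre-exposure and 75 mM KCl activation. Cells: HEK293 with stable α1G plus Kir2.1, fluo-3/AM-labelled (5 μM), assayed in pH 7.4 HEPES containing 10 mM CaCl2.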

Structure (SMILES)	inhibition at 10 µM ([1]; HEK293, 10 μM) [%]	melting point [°C]	FDSS (% inhibition)/10uM ([1]; 10 μM) [%]	inhibition at 10 µM ([1]; 10 μM) [%]
CC1SC(=NC2CCCCC2)N(C)C1CC(=O)Nc1cccc(F)c1.Cl (centres unmarked) [KHG24636, (2-cyclohexylimino-3,5-dimethyl-1,3-thiazolidine-4-yl)-N-(3-fluorophenyl)-acetamide hydrochloride]	35.2	257 to 259		
CC1SC(=NC2CCCCCC2)N(C)C1CC(=O)Nc1ccccc1.Cl (centres unmarked) [KHG24638, (2-cycloheptylimino-3,5-dimethyl-1,3-thiazolidine-4-yl)-N-phenyl-acetamide hydrochloride]	40.8	236 to 238		
Cc1ccc(NC(=O)CC2C(C)SC(=NC3CCCCCC3)N2C)cc1.Cl (centres unmarked) [KHG24639, (2-cycloheptylimino-3,5-dimethyl-1,3-thiazolidine-4-yl)-N-(4-methylphenyl)-acetamide hydrochloride]	48.5	248 to 250		
CC1SC(=NC2CCCCCC2)N(C)C1CC(=O)Nc1ccccc1F.Cl (centres unmarked) [KHG24640, (2-cycloheptylimino-3,5-dimethyl-1,3-thiazolidine-4-yl)-N-(2-fluorophenyl)-acetamide hydrochloride]	39.6	197 to 199		
CC1SC(=NC2CCCCCC2)N(C)C1CC(=O)Nc1cccc(F)c1.Cl (centres unmarked) [KHG24641, (2-cycloheptylimino-3,5-dimethyl-1,3-thiazolidine-4-yl)-N-(3-fluorophenyl)-acetamide hydrochloride]	63.5	247 to 249		
CC1SC(=NC2CCCCCC2)N(C)C1CC(=O)Nc1ccc([N+](=O)[O-])cc1.Cl (centres unmarked) [KHG24642, (2-cycloheptylimino-3,5-dimethyl-1,3-thiazolidine-4-yl)-N-(4-nitrophenyl)-acetamide hydrochloride]	66.7	255 to 258		
CC1SC(=NC2CCCCCC2)N(C)C1CC(=O)Nc1ccc(Cl)cc1.Cl (centres unmarked) [KHG24643, (2-cycloheptylimino-3,5-dimethyl-1,3-thiazolidine-4-yl)-N-(4-chlorophenyl)-acetamide hydrochloride]	65.4	240 to 242		
CC1SC(=NC2CCCCCC2)N(C)C1CC(=O)Nc1cc(Cl)cc(Cl)c1.Cl (centres unmarked) [KHG24644, (2-cycloheptylimino-3,5-dimethyl-1,3-thiazolidine-4-yl)-N-(3,5-dichlorophenyl)-acetamide hydrochloride]	53.4	248 to 250		
CC1SC(=NC2CCCCCC2)N(C)C1CC(=O)Nc1cc([N+](=O)[O-])ccc1F.Cl (centres unmarked) [KHG24645, (2-cycloheptylimino-3,5-dimethyl-1,3-thiazolidine-4-yl)-N-(2-fluoro-5-nitrophenyl)-acetamide hydrochloride]	48.4	248 to 251		
CC1SC(=NC2CCCCCC2)N(C)C1CC(=O)Nc1cc(C(F)(F)F)cc(C(F)(F)F)c1.Cl (centres unmarked) [KHG24646, (2-cycloheptylimino-3,5-dimethyl-1,3-thiazolidine-4-yl)-N-(3,5-ditrifluoromethylphenyl)-acetamide hydrochloride]	58.1	217 to 219		
CC1SC(=NC2CCCCCC2)N(C)C1CC(=O)Nc1ccc(OC(F)(F)F)cc1.Cl (centres unmarked) [KHG24647, (2-cycloheptylimino-3,5-dimethyl-1,3-thiazolidine-4-yl)-N-(4-trifluoromethoxyphenyl)-acetamide hydrochloride]	62.4	247 to 271		
CC1SC(=NC2CCCC2)N(C)C1CC(=O)Nc1ccc(C(C)(C)C)cc1.Cl (centres unmarked) [KHG24656, (2-cyclopentylimino-3,5-dimethyl-1,3-thiazolidine-4-yl)-N-(4-t-butylphenyl)-acetamide hydrochloride]	46.1	220 to 223		
CC1SC(=NC2CCCC2)N(C)C1CC(=O)Nc1ccc(Cl)cc1.Cl (centres unmarked) [KHG24657, (2-cyclopentylimino-3,5-dimethyl-1,3-thiazolidine-4-yl)-N-(4-chlorophenyl)-acetamide hydrochloride]	48	201 to 203		
CN1C(=NC2CCCCCC2)SCC1C(=O)NCc1cccc(F)c1.Cl (centres unmarked) [KHG24666, (2-cycloheptylimino-3-methyl-1,3-thiazolidine-4-yl)-N-(3-fluorobenzyl)-carboxamide hydrochloride]	46.2	226.1		
CN1C(=NC2CCCCCC2)SCC1C(=O)NCc1cccc(F)c1 (centres unmarked) [KHG24667, (2-cycloheptylimino-3-methyl-1,3-thiazolidine-4-yl)-N-(3-fluorobenzyl)-carboxamide]		140.1	45.99	
Br.CN1C(=NC2CCCCCC2)SCC1C(=O)NCc1cccc(Br)c1 (centres unmarked) [KHG24668, (2-cycloheptylimino-3-methyl-1,3-thiazolidine-4-yl)-N-(3-bromobenzyl)-carboxamide hydrobromide]	50.7	197.3		
CN1C(=NC2CCCCCC2)SCC1C(=O)NCc1cccc(Br)c1 (centres unmarked) [KHG24669, (2-cycloheptylimino-3-methyl-1,3-thiazolidine-4-yl)-N-(3-bromobenzyl)-carboxamide]		133	36.57	
Br.CN1C(=NC2CCCCCC2)SCC1C(=O)NCc1ccccc1C(F)(F)F (centres unmarked) [KHG24670, (2-cycloheptylimino-3-methyl-1,3-thiazolidine-4-yl)-N-(2-trifluoromethylbenzyl)-carboxamide hydrobromide]	46.7	236.9		
CN1C(=NC2CCCCCC2)SCC1C(=O)NCc1ccccc1C(F)(F)F (centres unmarked) [KHG24671, (2-cycloheptylimino-3-methyl-1,3-thiazolidine-4-yl)-N-(2-trifluoromethylbenzyl)-carboxamide]		223	47.2	
CCCCN1C(=NC23CC4CC(CC(C4)C2)C3)SCC1CC(=O)Nc1ccc(Cl)cc1.Cl (centres unmarked) [KHG24775, [2-(1-adamantylimino)-3-(n-butyl)-1,3-thiazolidine-4-yl]-N-(4-chlorophenyl)-acetamide hydrochloride]	62.9	158		
CCCCc1ccc(NC(=O)CC2CSC(=NC34CC5CC(CC(C5)C3)C4)N2CCCC)cc1.Cl (centres unmarked) [KHG24776, [2-(1-adamantylimino)-3-(n-butyl)-1,3-thiazolidine-4-yl]-N-(4-n-butylphenyl)-acetamide hydrochloride]	33.8	169		
CCCCN1C(=NC23CC4CC(CC(C4)C2)C3)SCC1CC(=O)Nc1ccc(F)cc1.Cl (centres unmarked) [KHG24780, [2-(1-adamantylimino)-3-(n-butyl)-1,3-thiazolidine-4-yl]-N-(4-fluorophenyl)-acetamide hydrochloride]		163		55.3

Now from value to molecule, other results behind:

inhibition at 10 µM ([1]; HEK293, 10 μM) [%]	melting point [°C]	FDSS (% inhibition)/10uM ([1]; 10 μM) [%]	Structure (SMILES)	inhibition at 10 µM ([1]; 10 μM) [%]
49.2	220		CCCCN1C(=NC23CC4CC(CC(C4)C2)C3)SCC1CC(=O)Nc1ccc(C(F)(F)F)cc1.Cl (centres unmarked) [KHG24777, [2-(1-adamantylimino)-3-(n-butyl)-1,3-thiazolidine-4-yl]-N-(4-trifluoromethylphenyl)-acetamide hydrochloride]	
47.2	164		CCCCN1C(=NC23CC4CC(CC(C4)C2)C3)SCC1CC(=O)Nc1ccc(C)cc1.Cl (centres unmarked) [KHG24781, [2-(1-adamantylimino)-3-(n-butyl)-1,3-thiazolidine-4-yl]-N-(4-methylphenyl)-acetamide hydrochloride]	
30.6	156		CCCCN1C(=NC23CC4CC(CC(C4)C2)C3)SCC1CC(=O)Nc1ccc(CC)cc1.Cl (centres unmarked) [KHG24782, [2-(1-adamantylimino)-3-(n-butyl)-1,3-thiazolidine-4-yl]-N-(4-ethylphenyl)-acetamide hydrochloride]	
54.4	161		CCCCN1C(=NC23CC4CC(CC(C4)C2)C3)SCC1CC(=O)Nc1ccc(Cl)cc1F.Cl (centres unmarked) [KHG24783, [2-(1-adamantylimino)-3-(n-butyl)-1,3-thiazolidine-4-yl]-N-(4-chloro-2-fluorophenyl)-acetamide hydrochloride]	
36.6	172		CCCCN1C(=NC23CC4CC(CC(C4)C2)C3)SCC1CC(=O)Nc1ccc(Br)cc1.Cl (centres unmarked) [KHG24784, [2-(1-adamantylimino)-3-(n-butyl)-1,3-thiazolidine-4-yl]-N-(4-bromophenyl)-acetamide hydrochloride]	
47.1	156		CCCCN1C(=NC23CC4CC(CC(C4)C2)C3)SCC1CC(=O)Nc1cc(Cl)ccc1F.Cl (centres unmarked) [KHG24785, [2-(1-adamantylimino)-3-(n-butyl)-1,3-thiazolidine-4-yl]-N-(5-chloro-2-fluorophenyl)-acetamide hydrochloride]	
67	258		Cl.O=C(CC1CSC(=NC23CC4CC(CC(C4)C2)C3)N1C1CC1)Nc1cc(C(F)(F)F)cc(C(F)(F)F)c1 (centres unmarked) [KHG24792, [2-(1-adamantylimino)-3-cyclopropyl-1,3-thiazolidine-4-yl]-N-(3,5-ditrifluoromethylphenyl)-acetamide hydrochloride]	
33.7	244		CCCCN1C(=NC23CC4CC(CC(C4)C2)C3)SCC1CC(=O)Nc1ccc(C(C)C)cc1.Cl (centres unmarked) [KHG24795, [2-(1-adamantylimino)-3-(n-butyl)-1,3-thiazolidine-4-yl]-N-(4-isopropylphenyl)-acetamide hydrochloride]	
63.4	266		CCc1ccc(NC(=O)CC2CSC(=NC34CC5CC(CC(C5)C3)C4)N2C2CC2)cc1.Cl (centres unmarked) [KHG24799, [2-(1-adamantylimino)-3-cyclopropyl-1,3-thiazolidine-4-yl]-N-(4-ethylphenyl)-acetamide hydrochloride]	
